In the RepoRT retention time repository:

Experiment: Agilent ZORBAX 300 SB-C18, 150 × 1 mm, 3.5 µm; A: water + 0.01% heptafluorobutyric acid; B: acetonitrile + 0.01% heptafluorobutyric acid; gradient (min/%B) 0/0 100/90
Conditions: stereoisomer not certain

In order of rising LC retention time:
1. NC(=O)NCCCC(N)C(=O)O (centres undefined)  1.71 min
2. c1nc[nH]n1  1.93 min
3. O=C(O)c1cc(=O)n(-c2ccc(S(=O)(=O)O)cc2)[nH]1  2.18 min
4. NC(=O)c1cc(O)c(O)c(O)c1  2.23 min
5. Nc1cc(=O)[nH]c(=S)[nH]1  2.25 min
6. CC(=O)NNC(=O)c1ccncc1  3.54 min
7. CCOC(N)=O  4.72 min
8. Nc1ccc(N)nc1  5.45 min
9. c1cnc2nc[nH]c2c1  6.03 min
10. CN(C)c1c[nH]c(=O)[nH]c1=O  6.22 min
11. CC(=O)CC(C)(C)N  6.26 min
12. CC(=O)N1C(=O)N(C(C)=O)C(O)C1O (centres undefined)  6.42 min
13. NCc1ccncc1  6.44 min
14. CN1CCNCC1  6.48 min
15. C1CCCNCC1  6.61 min
16. O=C1NCCN1C(=O)c1ccco1  6.67 min
17. c1cnc(NC2=NCCN2)cn1  6.92 min
18. CC(=O)Nc1cccc2ncccc12  6.92 min
19. CNCCc1ccccn1  6.92 min
20. CCc1ccncc1  6.94 min
21. Cc1cc(=O)n(C)c(=O)n1CCCN1CCCC1  7.09 min
22. CN(C)CCCN1CCC(O)C2CCCCC21 (centres undefined)  7.19 min
23. O=C(O)Cc1c(C(=O)O)[nH]c2ccc(C(=O)O)cc12  7.21 min
24. COC(=O)CCCCCN  7.25 min
25. NC(=O)Nc1ccccc1  7.26 min
26. CCCCNC  7.29 min
27. CCOC(=O)CC1CN(C)CCN1C (centres undefined)  7.31 min
28. C=CCNC1CCCC1  7.45 min
29. C=CC[n+]1ccc2ccccc2c1  7.67 min
30. Cc1nn(CC(=O)NCCO)c(=O)c2ccccc12  7.72 min
31. NC(=O)C1(N2CCCCC2)CCN(C(=O)c2ccccc2)CC1  7.76 min
32. CC(C)NCCN(CCNC(C)C)CCNC(C)C  7.84 min
33. O=CC1CCN(Cc2ccccc2)CC1  7.84 min
34. NC1CCc2ccccc21 (centres undefined)  7.85 min
35. Cc1cc(C)nc(NC(N)=NCc2cccnc2)n1  7.87 min
36. O=C(NN=Cc1cccnc1)c1ccccn1  7.9 min
37. O=C1c2ccccc2C(=O)N1CCN1CCNCC1  8.07 min
38. CCOC(CN1CCCCC1)OCC  8.11 min
39. CN1C(=O)C2CN(CCc3ccccc3)CNC2N(C)C1=O (centres undefined)  8.29 min
40. C=Cc1ccc(N)cc1  8.31 min
41. CC(C)(C)NCC(O)COc1cccc2c1CC(O)C(O)C2 (centres undefined)  8.31 min
42. c1cncc(Cn2cccc2)c1  8.31 min
43. OC12CC(Cc3cccnc31)c1ccccc12 (centres undefined)  8.39 min
44. CCN(CC)CCOC(=O)c1ccc(N)cc1  8.41 min
45. Cn1c(=O)n(C)c2cc(N3CCCCC3)c(N)cc21  8.49 min
46. CN1C2CCC1C(C(=O)O)C(OC(=O)c1ccccc1)C2 (centres undefined)  8.54 min
47. O=C(Nc1ccccn1)c1cccc(N2C(=O)CCC2=O)c1  8.59 min
48. Nc1ccc(Cc2ccncc2)cc1  8.71 min
49. O=C1NCC2(CCN(CCc3ccccc3)CC2)O1  8.72 min
50. Cn1c(=O)n(C)c(=O)n(CC(=O)N2CCCCC2)c1=O  8.88 min
51. COC(=O)CCNC(C)Cc1ccccc1 (centres undefined)  8.9 min
52. CC(CCc1ccc(O)cc1)NCCc1ccc(O)c(O)c1 (centres undefined)  8.94 min
53. c1cncc(-c2cccs2)c1  9.08 min
54. C(=Cc1cccs1)c1ccccn1  9.18 min
55. CCN(CC)CC(=O)Nc1c(C)cccc1C  9.19 min
56. Cc1cc2c(s1)Nc1ccccc1N=C2N  9.24 min
57. NC1=NC(=Nc2ccc(N3CCOCC3)cc2)c2ccccc21  9.27 min
58. CC(C)CCCC(C)N (centres undefined)  9.28 min
59. O=c1ccoc2ccccc12  9.31 min
60. Cn1c(=S)[nH]c2ccccc21  9.31 min
61. Cc1cccc(CN2CCN(C(=O)CC(C)C)CC2)c1  9.36 min
62. CN1COc2ccc3ccccc3c2C1  9.56 min
63. Cc1ccc(NC(=S)NC2CC(C)(C)NC(C)(C)C2)c(C)c1  9.61 min
64. COc1ccc2c(c1O)-c1cccc3c1C(C2)N(C)CC3 (centres undefined)  9.69 min
65. CC1CCN(C(=O)c2ccc(N)cc2)CC1  9.82 min
66. CC1(C)CC(NC(=S)NC2CCCCC2)CC(C)(C)N1  9.89 min
67. O=C1CCCN1c1ccccc1  10 min
68. CCN(CC)CCNc1cccc2ccccc12  10.1 min
69. Nc1ccccc1C(=O)NN=C1CCCC1  10.1 min
70. CCN(Cc1ccncc1)C(=S)NCCc1ccccc1  10.2 min
71. Cc1cccc(CN2CCN(CN3C(=O)c4ccccc4C3=O)CC2)c1  10.3 min
72. O=c1nc(N2CCOCC2)nc(N(c2ccccc2)c2ccccc2)[nH]1  10.5 min
73. CCC(=O)Nc1ccc(Oc2ccc(NC(=O)CC)c(NC(=O)CC)c2)cc1  10.5 min
74. Cc1ccc(C)c(NC(=O)C(=O)NCC(C)O)c1 (centres undefined)  10.5 min
75. CCNc1ccccc1C(=O)O  10.8 min
76. Nc1ccccc1NCCOc1ccccc1  11 min
77. CC(C)(C)c1ccc(C(=O)NN=Cc2cccnc2)cc1  11.2 min
78. O=C(c1ccccc1)c1nc2ccccc2[nH]c1=O  11.2 min
79. CCC1(c2ccccc2)C(=O)NC(=O)N(C)C1=O (centres undefined)  11.3 min
80. COC(=O)c1[nH]c2ccccc2c1C(=O)OC  11.3 min
81. Cn1c(C(=O)O)cc2ccccc21  11.4 min
82. OC1CCCc2c1[nH]c1ccccc21 (centres undefined)  11.4 min
83. CC(C)(C(=O)O)c1ccc(C(O)CCCN2CCC(C(O)(c3ccccc3)c3ccccc3)CC2)cc1 (centres undefined)  11.5 min
84. CCN(CC)c1ccc(N=Cc2ccc(N(CC)CC)cc2O)cc1  11.5 min
85. CC(=O)Oc1c[nH]c2ccccc12  11.6 min
86. COc1ccc(-c2ccccc2)cc1N  11.6 min
87. CN(C)CCCN1c2ccccc2CCc2ccccc21  11.6 min
88. c1ccn(-c2ccc3cn[nH]c3c2)c1  11.8 min
89. CN(C)CCC=C1c2ccccc2CCc2ccccc21  11.8 min
90. OC(Cn1cccc1)c1ccccc1 (centres undefined)  11.8 min
91. COC(=O)c1ccc(NC(=O)Cn2nc(C)c3ccccc3c2=O)cc1  11.9 min
92. Cc1nc2ccccc2nc1CN1C(=O)C2CC=CCC2C1=O (centres undefined)  11.9 min
93. CCCCCCCCCCN(C)C  12 min
94. O=C1CCCc2c1[nH]c1ccccc21  12.3 min
95. COc1cccc2c1NC(C)(C)CC2C (centres undefined)  12.3 min
96. CCCCCCCCCC[N+](C)(C)C  12.3 min
97. COC(=O)C1C2CC3c4[nH]c5cc(OC)ccc5c4CCN3CC2CC(OC(=O)c2cc(OC)c(OC)c(OC)c2)C1OC (centres undefined)  12.4 min
98. COc1ccc(N(C)C(=O)c2cccc(C(=O)N(C)c3ccc(OC)cc3)c2)cc1  12.6 min
99. Nc1cccc2c1C(=O)c1cccc(N)c1C2=O  12.6 min
100. Cc1cc(C=O)c(C)n1-c1ccccc1  13 min
101. CC(C)CNC(=O)c1cccc2c1-c1ccccc1C2=O  13.3 min
102. O=C(CCc1ccccc1)NN=Cc1ccccc1O  13.3 min
103. COC(=O)c1nnc(-c2ccccc2)c(-c2ccccc2)n1  13.6 min
104. NC(=S)NN=Cc1c2ccccc2cc2ccccc12  13.7 min
105. CN(C)c1ccc(C=C2Nc3ccccc3C2=O)cc1  13.7 min
106. O=C1c2ccccc2-c2nc3ccccc3cc21  14.2 min
107. Cc1[nH]c2ccccc2c1CCN1C(=O)C2CCCCC2C1=O (centres undefined)  14.3 min
108. Cc1cc(C)c2c(=O)n(CC(=O)NCCC(C)C)c(=O)n(-c3ccccc3)c2n1  14.4 min
109. OCCCc1cn(-c2ccccc2)c2ccccc12  14.8 min
110. O=c1c(Cc2ccccc2)c(O)c2ccccc2n1Cc1ccccc1  15.2 min
111. CCOC(=O)C(Cc1ccccc1)n1cccc1 (centres undefined)  15.9 min
112. Cc1ccc(CSc2ncccn2)c(CSc2ncccn2)c1C  16 min
113. OC(Cc1c[nH]c2ccccc12)(c1ccccc1)c1ccccc1  16.1 min
114. Cc1cccc(C(O)(C(=O)NN(C(=O)Nc2ccccc2)c2ccccc2)c2cccc(C)c2)c1  16.3 min
115. O=C(NCCc1ccc2oc3ccccc3c2c1)C1CCCCC1  16.3 min
116. CCCCCCCCCCCC[N+](C)(C)CCOc1ccccc1  16.6 min
117. O=C(C=Cc1ccccc1)c1cc2ccccc2o1  16.7 min
118. CCCCCCCCCCCC(N)=O  16.7 min
119. Cc1cccn2cc(-c3cccs3)cc12  17 min
120. CC1(C)CC(=O)c2c(-c3ccccc3)nc3ccc4ccccc4c3c2C1  17.1 min
121. CC(=O)C=CC=C(C)CCC=C(C)C  17.1 min
122. COc1ccc2ccccc2c1C=NNC(=O)C(c1ccccc1)c1ccccc1  17.5 min
123. CC(C)n1c2ccccc2c2ccccc21  18.2 min
124. Cc1ccsc1C=CC(=O)c1ccc2ccccc2c1  18.5 min
125. O=C1CCCc2c1[nH]c1ccc(C3CCCCC3)cc21  18.7 min
126. Cc1c(-c2ccccc2)cc(-c2ccccc2)nc1-c1ccccc1  19.2 min
127. CC(C)Cn1c2ccccc2c2ccccc21  19.5 min
128. CCCCCCCCN1C2=C(C(=O)CC(C)(C)C2)C(c2ccccc2)C2=C1CC(C)(C)CC2=O  20.9 min
129. COc1ccc2c(c1)CCC1C2CCC2(C)C(=O)C(=Cc3ccccc3)CC12 (centres undefined)  21.4 min
